Results on 3 compounds are retold here after patent publication US11291618B2, “Long wear skincare compositions” (priority 2019, dated 2022).

Where two headings read alike, the source gives them in different places.

A short description of series [1]: Penetration test using a Strat-M membrane in a Franz Cell, UPLC analysis. The procedure: In this study, exemplary actives with different hydrophilicity value were chosen. P is the partition coefficient, where a smaller P (more negative log P) indicates greater hydrophilicity. A penetration test was performed using a Strat-M® membrane, and the collected sample was then analyzed by Ultra-Performance Liquid Chromatography (UPLC). In the receptor chamber of a Franz Cell, 5.00 mL of the incubation medium was added as the collection phase. A Strat-M® membrane was loaded on top of the receptor chamber. The donor chamber was then added on top of the Strat-M® membrane, 0.80 mL of the crème was added to the donor chamber. […] At the end of that time period, 1.00 mL of the collection phase was withdrawn from the sampling port as the sample solution. The sample solution was filtered through a 0.45 micrometer (μm) syringe filter and then added into a 2.0 milliliter (mL) High Performance Liquid Chromatography (HPLC) vial. ACQUITY H UPLC from the Waters Corporation was used to analyze the collected samples from the Franz Cell study.
The amount of actives in the collection phase were analyzed by UPLC following the method described above.

The conditions of series [2]: cited from earlier work.

`O=C1O[C@H]([C@@H](O)CO)C(O)=C1O[C@H]1O[C@H](CO)[C@@H](O)[C@H](O)[C@H]1O` [ascorbyl glucoside]: the “effect of inclusion of the copolymer blend on delivery of the active” value in series [1] is given as “enhanced the delivery”. Moreover, the “Active Log P” value in series [2] is −4.79.

For the compound `NC(=O)c1cccnc1` [niacinamide], in series [1] (with versus without copolymer blend), the “effect of inclusion of the copolymer blend on delivery of the active” value is listed as “did not enhance the delivery”.

With `Cn1c(=O)c2c(ncn2C)n(C)c1=O` [caffeine], the “% of Penetration” value in series [1] (Franz Cell, room temperature, 48 hours) is given as “greater than 100%”.
